These results are taken from patent US8680092B2, “Nitrogenous heterocyclic compound and medicinal use thereof” (Ono Pharmaceutical Co., Ltd., priority 2005, dated 2014).

This experiment has as its target T1, CXCR4 (Homo sapiens, UniProt P61073).
T1 construct: a human T cell strain in which CXCR4 is known to be expressed; endogenous in cells; host or cells: CEM cells (human T cell strain)
In words: Study for inhibition of binding human SDF-1 to CEM cells. To be noted: human T cell strain CEM cells, 125I-SDF-1, 4° C. for 60 minutes. The text has this:
As mentioned above, a more direct procedure is a screening a compound that prevents for HIV from binding to CXCR4, which is a receptor on CD4+ cell, on an assay system using HIV. However, using HIV for a large-scale screening is not practical due to its difficult handling. On the other hand, both of T cell-directed (X4) HIV-1 and SDF-1 bind to CXCR4 and therefore CXCR4 binding sites at both of HIV-side and SDF-1-side as well as SDF-1- and HIV-binding sites at the CXCR4 side may presumably have any common characteristics. […]
To human T cell strain CEM cells in a binding buffer (containing HEPES and BSA), the test compound and ^125I-SDF-1 (NEN) were added and the mixture was incubated at 4° C. for 60 minutes. […] An amount of the radioactivity bound to the CEM cells was measured using Top Count (Packard) and inhibition (%) of the test compound was calculated according to the following equation: Inhibition=(Et−Ea)/(Et−Ec)×100
Et: amount of radioactivity when the test compound is not added,
Ec: amount of radioactivity when non-radioactive SDF-1 (Pepro Tech) is added in an amount of 1000 times as much as ^125I-SDF-1 as a test compound, and
Ea: amount of radioactivity when the test compound is added.

T1 sequence (P61073 whole entry): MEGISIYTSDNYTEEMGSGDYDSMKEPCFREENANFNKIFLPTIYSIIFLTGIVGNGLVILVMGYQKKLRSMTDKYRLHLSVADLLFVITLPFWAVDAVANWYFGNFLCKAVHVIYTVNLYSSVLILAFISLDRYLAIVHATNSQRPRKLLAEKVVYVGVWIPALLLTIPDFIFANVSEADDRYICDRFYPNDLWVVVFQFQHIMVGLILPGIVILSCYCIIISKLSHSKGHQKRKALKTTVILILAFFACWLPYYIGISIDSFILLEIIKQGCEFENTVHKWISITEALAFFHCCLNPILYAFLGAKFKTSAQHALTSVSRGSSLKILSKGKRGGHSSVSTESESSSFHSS

Compound `NCCC[C@@H]1[C@@H](Nc2nccc(N3CCCCCC3)n2)CCN1C1CCCCC1` [compound 10-2, N-[(2R,3S)-2-(3-aminopropyl)-1-cyclohexyl-3-pyrrolidinyl]-4-(1-azepanyl)-2-pyrimidinamine] yielded an IC50 of 1.6 nM.

One may read the IC50 as the midpoint of a concentration-inhibition curve. Lower therefore signals higher potency.
